Test results taken from patent US11590197B2, “Agents targeting inhibitor of apoptosis proteins” (The Regents of the University of California, priority 2017, dated 2023).
“Also recorded” adds a separate entry of the source. Read-outs that look alike come from different tables or passages of the source. Blank lines part the entries; values can stand above or below the compound they belong to. Where a SMILES comes first, the peptide text is derived from it. [ ]: non-standard residue; d: D form. Tyr(SO2F) = N[C@@H](Cc1ccc(OS(=O)(=O)F)cc1)C(=O)O; NMeA = CN[C@@H](C)C(=O)O

What was measured:
[1] = target: BIR3 domain of XIAP; settings: legend of FIG. 13; read-out: K is (Ki) for the BIR3 domain of XIAP; cited from earlier work
[2] = target: BIR3 domain of cIAP1; settings: legend of FIG. 13; read-out: K is (Ki) for the BIR3 domain of cIAP1; cited from earlier work
[3] = target: BIR3 domain of cIAP2; settings: legend of FIG. 13; read-out: K is (Ki) for the BIR3 domain of cIAP2; cited from earlier work
[4] = target: T1, BIR3 domain of XIAP (Homo sapiens, UniProt P98170); test: Isothermal titration calorimetry (ITC) against the BIR3 domain of XIAP; format: binding; set-up: human BIR3 domain of XIAP fragment (residues 253-347) and an N-terminal His tag; His tag (N); made in house; host or cells: E. coli BL21(DE3) Gold; settings: figure legends and table titles
[5] = system: H929 and L363 cells; test: MTS assay, LCL161-sensitive multiple myeloma cell lines; format: cell-based, human; settings: H929 and L363, 48 hr, 20 μM; result in words
Method: (§1) Cell lines and antibodies. […] (ATCC® TIB-196™), NCI-H929 [H929]
MTS assay. MM.1S, U266, L363, H929, LP1, RPMI cells were seeded on 96-well plates in three replicates at 100 μL/well (2.5×10^5cells/ml) in growing medium and exposed to 20 μM) of different chemical compounds.

[6] = system: MIA PaCa-2 cells; test: Co-treatment with gemcitabine (GEM) and IAP inhibitors, MIA PaCa-2; format: cell-based, human; settings: GEM 24 h, then GEM + 15 μM IAP inhibitor 24 h; result in words
Method: as §1
(§2) Pancreatic cancer cells co-treatment with gemcitabine (GEM) and IAP inhibitors. Pancreatic cancer cells were plated at 30×10^3 cells per well in 96-well plates. The next day, cells were treated with different concentrations of GEM. After 24-h incubation, media was removed and replenished with the same GEM concentration alone or with 15 μM of IAP inhibitors in serum-free media and cells were further incubated for 24 h.
(§3) Cell proliferation assay was determined using ATPlite 1Step Luminescence Assay System (PerkinElmer) according to the manufacturer's instructions, and luminescence was measured by VICTOR X5 microplate reader (PerkinElmer). Finally, data was plotted, and IC50 values were calculated using Prism GraphPad version 7. […] This experiment was repeated three times, and each concentration was tested in triplicate.

[7] = system: BxPC3 and PANC-1 cells; test: Co-treatment with gemcitabine (GEM) and IAP inhibitors, BxPC3 and PANC-1; format: cell-based, human; settings: GEM 24 h, then GEM + 15 μM IAP inhibitor 24 h; result in words
Method: as §1, §2, §3

[8] = target: BIR3 domain of cIAP1 (Homo sapiens, UniProt Q13490)
[9] = target: BIR3 domain of cIAP2 (Homo sapiens, UniProt Q13489); settings: for activity against the Bir3 domain of cIAP2: Example 1, result in words
[10] = target: T1, BIR3 domain of XIAP
[11] = read-out: DELFIA IC50 (nM) cIAP1-BIR3, 2-h incubation, Table 9
[12] = read-out: DELFIA IC50 (nM) cIAP2-BIR3, 2-h incubation, Table 9
[13] = read-out: DELFIA IC50 (nM) cIAP2-BIR3, 2-h incubation, Table 7

Sequence of BIR3 domain of cIAP2 (Homo sapiens, UniProt Q13489) (Q13489 245-337 limits assumed): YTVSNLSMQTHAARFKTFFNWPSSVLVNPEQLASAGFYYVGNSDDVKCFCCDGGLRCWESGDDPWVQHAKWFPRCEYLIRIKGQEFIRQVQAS
T1 sequence (P98170 253-347): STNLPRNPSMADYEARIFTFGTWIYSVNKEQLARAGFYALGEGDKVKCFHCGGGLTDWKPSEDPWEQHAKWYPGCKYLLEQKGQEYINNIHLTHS
Sequence of BIR3 domain of cIAP1 (Homo sapiens, UniProt Q13490) (Q13490 266-352 limits assumed): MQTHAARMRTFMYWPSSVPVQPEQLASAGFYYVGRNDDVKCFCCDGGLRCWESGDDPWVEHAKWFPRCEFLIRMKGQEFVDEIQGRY

ΔH of binding [4]: -6.5 kcal/mol
SMILES: CN[C@@H](C)C(=O)N[C@H]1CN(C(=O)CC(C)C)CC[C@H]2CC[C@@H](C(=O)NC(c3ccccc3)c3ccccc3)N2C1=O [AT-406]
Ki [1]: 0.0664 µM | Ki [2]: 0.0019 µM | Ki [3]: 0.0051 µM

SMILES: CN[C@@H](C)C(=O)N[C@@H](Cc1cc(C)c(C(F)(F)F)cc1F)C(=O)N1CCC[C@H]1C(=O)NC1CCc2c(F)cccc21 (some centres unmarked) [Compound 31]
activity in LCL161-sensitive MM cell lines [5]: approximately equipotent | effect in combination with gemcitabine, MIA PaCa-2 [6]: modest significant additive effect | effect in combination with gemcitabine, BxPC3 and PANC-1 (pancreatic cancer cell lines, FIG. 10E) [7]: significantly sensitize; also recorded: able to significantly restore growth inhibition by gemcitabine; also recorded: significant synergism

SMILES: CN[C@@H](C)C(=O)N[C@@H](Cc1ccc(S(=O)(=O)O)cc1)C(=O)N1CCCC1c1cncc(Cc2ccccc2)n1 (some centres unmarked) [Compound 139H2]
activity against the Bir3 domain of cIAP1 [8]: much less active | activity against the Bir3 domain of cIAP2 [9]: much less active

SMILES: CN[C@@H](C)C(=O)N[C@@H](Cc1ccc(S(=O)(=O)O)cc1)C(=O)N1CCCC1C(=O)NC1Cc2ccccc2C1 (some centres unmarked) [Compound 139H3]
activity against the Bir3 domain of cIAP1 [8]: much less active | activity against the Bir3 domain of cIAP2 [9]: much less active

IC50 ([10]; read-out: DELFIA IC50 (nM) XIAP-BIR3, 2-h incubation, Table 8): 18.8 nM | IC50 ([8]; read-out: DELFIA IC50 (nM) cIAP1-BIR3, 2-h incubation, Table 8): ~1000 nM | IC50 ([9]; read-out: DELFIA IC50 (nM) cIAP2-BIR3, 2-h incubation, Table 8): ~1300 nM
SMILES: CNC(C)C(=O)NC(CNC(=O)c1ccc(S(=O)(=O)F)cc1)C(=O)N1CCCC1C(=O)NC1Cc2ccccc2C1 (centres unmarked) [Compound 142B2, MeHN-A-Dap(4-FSB)-P-(2-aminoindan)]

IC50 ([10]; read-out: DELFIA IC50 (nM) XIAP-BIR3, 2-h incubation, Table 9): 49.8 nM | IC50 [8, 11]: 5.1 nM | IC50 [9, 12]: 1.2 nM
SMILES: C=CS(=O)(=O)c1ccc(C(=O)NC[C@H](NC(=O)[C@H](C)NC)C(=O)N2CCC[C@H]2C(=O)NC2Cc3ccccc3C2)cc1 [Compound 142B4, MeHN-A-Dap(4-VSB)-P-(2-aminoindan)]

SMILES: CN[C@@H](C)C(=O)N[C@@H](Cc1ccc(OS(=O)(=O)F)cc1)C(=O)N1CCC[C@H]1C(=O)N[C@@H](Cc1ccccc1)C(N)=O [Compound 142B9, MeHN-A-F(OSO2F)-P-F-CONH2] (H-[NMeA][Tyr(SO2F)]PF-NH2)
IC50 [9, 13]: 343 nM | IC50 [9, 12]: 343 nM

SMILES: CN[C@@H](C)C(=O)N[C@@H](CNC(=O)c1ccc(OS(=O)(=O)F)cc1)C(=O)N1CCC[C@H]1C(=O)N[C@@H](Cc1ccccc1)C(N)=O [Compound 142B10, MeHN-A-Dap(p-OSO2F-Benzamide)-P-F-CONH2]
IC50 ([8]; read-out: DELFIA IC50 (nM) cIAP1-BIR3, 2-h incubation, Table 7): 335 nM | IC50 [9, 13]: > 1000 nM

SMILES: CN[C@@H](C)C(=O)N[C@@H](Cc1ccc(OS(=O)(=O)F)cc1)C(=O)N1CCC[C@H]1C(=O)NC1Cc2ccccc2C1 [Compound 142C1, MeHN-A-F(OSO2F)-P-2-aminoindan]
IC50 [8, 11]: 316 ± 6.4 nM | IC50 [9, 12]: 864.1 ± 8.3 nM

IC50 ([10]; read-out: DELFIA IC50 (nM) XI4P-BIR3 2-h, 2-h, Table 10): 86.7 nM | IC50 ([10]; read-out: DELFIA IC50 (nM) XI4P-BIR3 6-h pre, 2-h, 6-h pre, 2-h, Table 10): 51.8 nM | IC50 ([8]; read-out: DELFIA IC50 (nM) cI4P1-BIR3 2-h, 2-h, Table 10): 128 nM | IC50 ([8]; read-out: DELFIA IC50 (nM) cI4P1-BIR3 6-h pre, 2-h, 6-h pre, 2-h, Table 10): 56.9 nM | IC50 ([9]; read-out: DELFIA IC50 (nM) cIAP2-BIR3 2-h, 2-h, Table 10): 96 nM | IC50 ([9]; read-out: DELFIA IC50 (nM) cIAP2-BIR3 6-h pre, 2-h, 6-h pre, 2-h, Table 10): 144 nM
SMILES: CNC(C)C(=O)NC(Cc1ccc(OS(=O)(=O)F)cc1)C(=O)N1CCCC1C(=O)NC1CCc2ccccc21 (centres unmarked) [Compound 142C3, MeHN-A-F(OSO2F)-1-P-aminoindan]
